Experimental data: patent US20230114728A1 (Venatorx Pharmaceuticals, Inc., priority 2019, published 2023)
Values after ≈ are worked out from the molar mass of the structure shown.

Tests used:
Format in all cases: cell-based
[1] = test system: N. gonorrhoeae WHO G; experiment: Liquid broth MIC in Fastidious broth; conditions: Neisseria gonorrhoeae; N. gonorrhoeae strain WHO G; Fastidious broth; read-out: Minimum Inhibitory Concentration, N. gonorrhoeae WHO G
Method in brief: (§1)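 Colonies were swabbed from chocolate agar after 24 h growth and standardised by optical density at 600 nm. Compounds were serially diluted twofold in Fastidious broth, and bacteria added to give 5×10^5 CFU/mL. After about 24 h at 36 °C in 5% CO2, the lowest concentration allowing under 10% growth was taken as MIC.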

[2] = test system: N. gonorrhoeae ATCC 49226; experiment: Liquid broth MIC in Fastidious broth; conditions: Neisseria gonorrhoeae, ATCC49226; N. gonorrhoeae strain ATCC 49226; Fastidious broth; read-out: Minimum Inhibitory Concentration, N. gonorrhoeae ATCC 49226
Method in brief: as §1

[3] = test system: N. gonorrhoeae WHO Z; experiment: Liquid broth MIC in Fastidious broth; conditions: Neisseria gonorrhoeae, read-out: Minimum Inhibitory Concentration, N. gonorrhoeae WHO Z
Method in brief: (§2)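 Broth microdilution in Fastidious broth with 2-fold compound series; inoculum from 24 h chocolate agar colonies, 5×10^5 CFU/mL start. Incubated ~24 hours at 36° C, 5% CO2. MIC read visually as lowest concentration giving <10% growth versus full-growth wells; strains carry mosaic PBP2.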

[4] = test system: N. gonorrhoeae WHO Q; experiment: Liquid broth MIC in Fastidious broth; conditions: Neisseria gonorrhoeae, read-out: Minimum Inhibitory Concentration, N. gonorrhoeae WHO Q
Method in brief: as §2

[5] = test system: N. gonorrhoeae H041; experiment: Liquid broth MIC in Fastidious broth; conditions: Neisseria gonorrhoeae, H041, read-out: Minimum Inhibitory Concentration, N. gonorrhoeae H041
Method in brief: as §2

[6] = test system: N. gonorrhoeae FA1090; experiment: Liquid broth MIC in Fastidious broth; conditions: Neisseria gonorrhoeae; N. gonorrhoeae strain FA1090; Fastidious broth; read-out: Minimum Inhibitory Concentration, N. gonorrhoeae FA1090
Method in brief: as §1

[7] = test system: N. gonorrhoeae WHO L; experiment: Liquid broth MIC in Fastidious broth; conditions: Neisseria gonorrhoeae; N. gonorrhoeae strain WHO L; Fastidious broth; read-out: Minimum Inhibitory Concentration, N. gonorrhoeae WHO L
Method in brief: as §1

[8] = test system: N. gonorrhoeae WHO K; experiment: Liquid broth MIC in Fastidious broth; conditions: Neisseria gonorrhoeae, read-out: Minimum Inhibitory Concentration, N. gonorrhoeae WHO K
Method in brief: as §2

[9] = test system: A. baumannii ATCC 19606; experiment: Broth microdilution MIC in CAMHB; conditions: Acinetobacter baumannii, ATCC19606; MHB; read-out: Minimum Inhibitory Concentration, A. baumannii ATCC 19606
Method in brief: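 CLSI broth microdilution in CAMHB: 2-fold compound dilutions inoculated at 2-8×10^5 CFU/mL from 3-5 h log-phase cultures. Incubated at 37 °C for 16-20 h (Enterobacteriaceae, Pseudomonas); MIC read visually as lowest concentration without growth. Strains include hyper-permeable and efflux-deficient mutants.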

[10] = test system: K. pneumoniae SI-117 producing VIM-1; experiment: Broth microdilution MIC in CAMHB; conditions: Klebsiella pneumoniae, read-out: Minimum Inhibitory Concentration, K. pneumoniae SI-117
Method in brief: (§3)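 Per CLSI broth microdilution, colonies were grown 3-5 h at 37° C in cation-adjusted Mueller Hinton broth, then diluted to a starting inoculum of 2-8×10^5 CFU/mL against 2-fold serial compound dilutions. Plates were incubated 16-20 h at 37° C, and MIC was read visually as the lowest concentration with no growth.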

[11] = test system: E. coli D22; experiment: Broth microdilution MIC in CAMHB; conditions: Escherichia coli; E. coli D22 (hyper-permeable); MHB; read-out: Minimum Inhibitory Concentration, E. coli D22
Method in brief: as §3

[12] = test system: E. coli AG100; experiment: Broth microdilution MIC in CAMHB; conditions: Escherichia coli; E. coli AG100 (wild-type parent); MHB; read-out: Minimum Inhibitory Concentration, E. coli AG100
Method in brief: as §3

[13] = test system: E. coli 901C; experiment: Broth microdilution MIC in CAMHB; conditions: Escherichia coli; E. coli 901C (hyper-permeable); MHB; read-out: Minimum Inhibitory Concentration, E. coli 901C
Method in brief: as §3

SMILES: CCN1CCN(C(=O)NC(C(=O)N[C@H]2Cc3cccc(C(=O)O)c3OB2O)c2c(F)c(O)cc(O)c2F)C(=O)C1=O (stereo partly drawn) [Example 106, (3R)-3-(2-(2,6-difluoro-3,5-dihydroxyphenyl)-2-(4-ethyl-2,3-dioxopiperazine-1-carboxamido)acetamido)-2-hydroxy-3,4-dihydro-2H-benzo[e][1,2]oxaborinine-8-carboxylic acid]
- MIC [1]: 16 to 32 µg/mL (≈ 27.8 to 55.5 µM)
- MIC [2]: > 64 µg/mL
- MIC [3]: > 64 µg/mL
- MIC [4]: > 64 µg/mL
- MIC [5]: > 64 µg/mL
- MIC [6]: 16 to 32 µg/mL (≈ 27.8 to 55.5 µM)
- MIC [7]: > 64 µg/mL
- MIC [8]: > 64 µg/mL
- MIC [9]: > 128 µg/mL
- MIC [10]: > 128 µg/mL
- MIC [11]: 8 to 16 µg/mL (≈ 13.9 to 27.8 µM)
- MIC [12]: > 128 µg/mL
- MIC [13]: 2 to 4 µg/mL (≈ 3.47 to 6.94 µM)

SMILES: CCN1CCN(C(=O)NC(C(=O)N[C@H]2Cc3cccc(C(=O)O)c3OB2O)c2cccc(CNS(N)(=O)=O)c2)C(=O)C1=O (stereo partly drawn) [Example 107, (3R)-3-(2-(4-ethyl-2,3-dioxopiperazine-1-carboxamido)-2-(3-((sulfamoylamino)methyl)phenyl)acetamido)-2-hydroxy-3,4-dihydro-2H-benzo[e][1,2]oxaborinine-8-carboxylic acid]
- MIC [1]: 16 to 32 µg/mL (≈ 26 to 51.9 µM)
- MIC [2]: > 64 µg/mL
- MIC [3]: > 64 µg/mL
- MIC [4]: > 64 µg/mL
- MIC [5]: > 64 µg/mL
- MIC [6]: 1 to 2 µg/mL (≈ 1.62 to 3.24 µM)
- MIC [7]: > 64 µg/mL
- MIC [8]: > 64 µg/mL
- MIC [9]: > 128 µg/mL
- MIC [10]: > 128 µg/mL
- MIC [11]: 8 to 16 µg/mL (≈ 13 to 26 µM)
- MIC [12]: > 128 µg/mL
- MIC [13]: 0.5 to 1 µg/mL (≈ 0.811 to 1.62 µM)

SMILES: CCN1CCN(C(=O)NC(C(=O)N[C@H]2Cc3cccc(C(=O)O)c3OB2O)c2cccc(CN)c2)C(=O)C1=O (stereo partly drawn) [Example 108, (3R)-3-(2-(3-(aminomethyl)phenyl)-2-(4-ethyl-2,3-dioxopiperazine-1-carboxamido)acetamido)-2-hydroxy-3,4-dihydro-2H-benzo[e][1,2]oxaborinine-8-carboxylic acid]
- MIC [1]: 4 to 8 µg/mL (≈ 7.44 to 14.9 µM)
- MIC [2]: 16 to 32 µg/mL (≈ 29.8 to 59.6 µM)
- MIC [3]: > 64 µg/mL
- MIC [4]: > 64 µg/mL
- MIC [5]: > 64 µg/mL
- MIC [6]: 1 to 2 µg/mL (≈ 1.86 to 3.72 µM)
- MIC [7]: > 64 µg/mL
- MIC [8]: > 64 µg/mL
- MIC [9]: > 128 µg/mL
- MIC [10]: 32 to 64 µg/mL (≈ 59.6 to 119 µM)
- MIC [11]: 8 to 16 µg/mL (≈ 14.9 to 29.8 µM)
- MIC [12]: 32 to 64 µg/mL (≈ 59.6 to 119 µM)
- MIC [13]: 2 to 4 µg/mL (≈ 3.72 to 7.44 µM)

SMILES: NCCN1CCN(C(=O)NC(C(=O)N[C@H]2Cc3cccc(C(=O)O)c3OB2O)c2cc(F)c(O)cc2Cl)C(=O)C1=O (stereo partly drawn) [Example 109, (3R)-3-(2-(4-(2-aminoethyl)-2,3-dioxopiperazine-1-carboxamido)-2-(2-chloro-5-fluoro-4-hydroxyphenyl)acetamido)-2-hydroxy-3,4-dihydro-2H-benzo[e][1,2]oxaborinine-8-carboxylic acid]
- MIC [1]: > 64 µg/mL
- MIC [2]: > 64 µg/mL
- MIC [3]: > 64 µg/mL
- MIC [4]: > 64 µg/mL
- MIC [5]: > 64 µg/mL
- MIC [6]: 4 to 8 µg/mL (≈ 6.76 to 13.5 µM)
- MIC [7]: > 64 µg/mL
- MIC [8]: > 64 µg/mL
- MIC [9]: > 128 µg/mL
- MIC [10]: > 128 µg/mL
- MIC [11]: 8 to 16 µg/mL (≈ 13.5 to 27 µM)
- MIC [12]: > 128 µg/mL
- MIC [13]: 2 to 4 µg/mL (≈ 3.38 to 6.76 µM)

SMILES: CCN1CCN(C(=O)NC(C(=O)N[C@H]2Cc3cccc(C(=O)O)c3OB2O)c2cncc(O)c2)C(=O)C1=O (stereo partly drawn) [Example 112, (3R)-3-(2-(4-ethyl-2,3-dioxopiperazine-1-carboxamido)-2-(5-hydroxypyridin-3-yl)acetamido)-2-hydroxy-3,4-dihydro-2H-benzo[e][1,2]oxaborinine-8-carboxylic acid]
- MIC [1]: 4 to 8 µg/mL (≈ 7.61 to 15.2 µM)
- MIC [2]: 4 to 8 µg/mL (≈ 7.61 to 15.2 µM)
- MIC [3]: 16 to 32 µg/mL (≈ 30.5 to 60.9 µM)
- MIC [4]: 16 to 32 µg/mL (≈ 30.5 to 60.9 µM)
- MIC [5]: > 64 µg/mL
- MIC [6]: 1 to 2 µg/mL (≈ 1.9 to 3.81 µM)
- MIC [7]: > 64 µg/mL
- MIC [8]: > 64 µg/mL
- MIC [9]: > 128 µg/mL
- MIC [10]: > 128 µg/mL
- MIC [11]: 2 to 4 µg/mL (≈ 3.81 to 7.61 µM)
- MIC [12]: 32 to 64 µg/mL (≈ 60.9 to 122 µM)
- MIC [13]: 0.5 to 1 µg/mL (≈ 0.952 to 1.9 µM)
